According to the NIST ThermoML archive (doi:10.1016/j.jct.2007.07.002):
± gives the expanded uncertainty stated by the source.

Settings: Gas, double Helmholtz acoustic resonator

[C-]#[O+] [carbon monoxide]
speed of sound (275 K, 2150.8 kPa): 340.38 ± 0.069 m/s
kinematic viscosity (275 K, 2364.7 kPa): 5.79e-07 ± 6.9e-09 m2/s
speed of sound (275 K, 2364.7 kPa): 340.69 ± 0.076 m/s
kinematic viscosity (300 K, 252.56 kPa): 6.71e-06 ± 2.4e-07 m2/s
speed of sound (300 K, 252.56 kPa): 353.44 ± 0.58 m/s
kinematic viscosity (300 K, 501.19 kPa): 3.25e-06 ± 4.4e-08 m2/s
speed of sound (300 K, 501.19 kPa): 353.74 ± 0.16 m/s
kinematic viscosity (300 K, 709.53 kPa): 2.28e-06 ± 4.8e-07 m2/s
speed of sound (300 K, 709.53 kPa): 354 ± 0.85 m/s
kinematic viscosity (300 K, 1000 kPa): 1.64e-06 ± 2e-08 m2/s
speed of sound (300 K, 1000 kPa): 354.52 ± 0.086 m/s
kinematic viscosity (300 K, 1178.1 kPa): 1.39e-06 ± 1.7e-08 m2/s
speed of sound (300 K, 1178.1 kPa): 354.78 ± 0.072 m/s
kinematic viscosity (300 K, 1250 kPa): 1.31e-06 ± 1.6e-08 m2/s
speed of sound (300 K, 1250 kPa): 354.91 ± 0.072 m/s
kinematic viscosity (300 K, 1374 kPa): 1.2e-06 ± 1.4e-08 m2/s
speed of sound (300 K, 1374 kPa): 355.09 ± 0.072 m/s
kinematic viscosity (300 K, 1481.5 kPa): 1.12e-06 ± 1.3e-08 m2/s
speed of sound (300 K, 1481.5 kPa): 355.27 ± 0.072 m/s
kinematic viscosity (300 K, 1500 kPa): 1.1e-06 ± 1.3e-08 m2/s
speed of sound (300 K, 1500 kPa): 355.32 ± 0.072 m/s
kinematic viscosity (300 K, 1602.1 kPa): 1.03e-06 ± 1.2e-08 m2/s
speed of sound (300 K, 1602.1 kPa): 355.46 ± 0.072 m/s
kinematic viscosity (300 K, 1730.3 kPa): 9.55e-07 ± 1.2e-08 m2/s
speed of sound (300 K, 1730.3 kPa): 355.67 ± 0.072 m/s
kinematic viscosity (300 K, 1750 kPa): 9.47e-07 ± 1.1e-08 m2/s
speed of sound (300 K, 1750 kPa): 355.74 ± 0.072 m/s
kinematic viscosity (300 K, 1868 kPa): 8.89e-07 ± 1.1e-08 m2/s
speed of sound (300 K, 1868 kPa): 355.91 ± 0.072 m/s
kinematic viscosity (300 K, 2000 kPa): 8.32e-07 ± 1e-08 m2/s
speed of sound (300 K, 2000 kPa): 356.15 ± 0.14 m/s
kinematic viscosity (300 K, 2005.3 kPa): 8.27e-07 ± 9.9e-09 m2/s
speed of sound (300 K, 2005.3 kPa): 356.15 ± 0.072 m/s
kinematic viscosity (325 K, 303.08 kPa): 5.93e-06 ± 3.6e-07 m2/s
speed of sound (325 K, 303.08 kPa): 367.79 ± 0.51 m/s
kinematic viscosity (325 K, 515.56 kPa): 3.49e-06 ± 9.6e-08 m2/s
speed of sound (325 K, 515.56 kPa): 368.11 ± 0.32 m/s
kinematic viscosity (325 K, 732.01 kPa): 2.49e-06 ± 3.2e-08 m2/s
speed of sound (325 K, 732.01 kPa): 368.52 ± 0.075 m/s
kinematic viscosity (325 K, 943.23 kPa): 1.94e-06 ± 2.3e-08 m2/s
speed of sound (325 K, 943.23 kPa): 368.91 ± 0.075 m/s
kinematic viscosity (325 K, 1169.7 kPa): 1.57e-06 ± 1.9e-08 m2/s
speed of sound (325 K, 1169.7 kPa): 369.33 ± 0.082 m/s
kinematic viscosity (325 K, 1401.2 kPa): 1.31e-06 ± 1.6e-08 m2/s
speed of sound (325 K, 1401.2 kPa): 369.77 ± 0.075 m/s
kinematic viscosity (325 K, 1633.9 kPa): 1.12e-06 ± 1.4e-08 m2/s
speed of sound (325 K, 1633.9 kPa): 370.22 ± 0.075 m/s
kinematic viscosity (325 K, 1908.7 kPa): 9.62e-07 ± 1.2e-08 m2/s
speed of sound (325 K, 1908.7 kPa): 370.77 ± 0.075 m/s
kinematic viscosity (325 K, 2129.6 kPa): 8.63e-07 ± 1e-08 m2/s
speed of sound (325 K, 2129.6 kPa): 371.22 ± 0.075 m/s
kinematic viscosity (325 K, 2413.1 kPa): 7.66e-07 ± 9.8e-09 m2/s
speed of sound (325 K, 2413.1 kPa): 371.82 ± 0.075 m/s
kinematic viscosity (350 K, 342.4 kPa): 6.04e-06 ± 2.6e-07 m2/s
speed of sound (350 K, 342.4 kPa): 381.63 ± 0.47 m/s
kinematic viscosity (350 K, 544.1 kPa): 3.84e-06 ± 6.4e-08 m2/s
speed of sound (350 K, 544.1 kPa): 382.06 ± 0.092 m/s
kinematic viscosity (350 K, 775.52 kPa): 2.69e-06 ± 3.4e-08 m2/s
speed of sound (350 K, 775.52 kPa): 382.52 ± 0.077 m/s
kinematic viscosity (350 K, 1007.1 kPa): 2.06e-06 ± 2.5e-08 m2/s
speed of sound (350 K, 1007.1 kPa): 382.99 ± 0.1 m/s
kinematic viscosity (350 K, 1245.1 kPa): 1.68e-06 ± 2e-08 m2/s
speed of sound (350 K, 1245.1 kPa): 383.51 ± 0.077 m/s
kinematic viscosity (350 K, 1461.5 kPa): 1.43e-06 ± 1.7e-08 m2/s
speed of sound (350 K, 1461.5 kPa): 383.96 ± 0.078 m/s
kinematic viscosity (350 K, 1735.1 kPa): 1.21e-06 ± 1.7e-08 m2/s
speed of sound (350 K, 1735.1 kPa): 384.56 ± 0.11 m/s
kinematic viscosity (350 K, 1995.6 kPa): 1.05e-06 ± 1.3e-08 m2/s
speed of sound (350 K, 1995.6 kPa): 385.14 ± 0.078 m/s
kinematic viscosity (350 K, 2208.2 kPa): 9.51e-07 ± 1.1e-08 m2/s
speed of sound (350 K, 2208.2 kPa): 385.62 ± 0.078 m/s
kinematic viscosity (350 K, 2464.2 kPa): 8.55e-07 ± 1e-08 m2/s
speed of sound (350 K, 2464.2 kPa): 386.21 ± 0.078 m/s
kinematic viscosity (375 K, 260.28 kPa): 8.45e-06 ± 1.2e-06 m2/s
speed of sound (375 K, 260.28 kPa): 394.36 ± 1.7 m/s
kinematic viscosity (375 K, 460.71 kPa): 4.99e-06 ± 1.7e-07 m2/s
speed of sound (375 K, 460.71 kPa): 394.79 ± 0.87 m/s
kinematic viscosity (375 K, 672.43 kPa): 3.42e-06 ± 8e-08 m2/s
speed of sound (375 K, 672.43 kPa): 395.31 ± 0.095 m/s
kinematic viscosity (375 K, 885.97 kPa): 2.63e-06 ± 3.1e-08 m2/s
speed of sound (375 K, 885.97 kPa): 395.84 ± 0.08 m/s
kinematic viscosity (375 K, 1102.9 kPa): 2.13e-06 ± 2.6e-08 m2/s
speed of sound (375 K, 1102.9 kPa): 396.34 ± 0.08 m/s
kinematic viscosity (375 K, 1302.3 kPa): 1.81e-06 ± 2.2e-08 m2/s
speed of sound (375 K, 1302.3 kPa): 396.82 ± 0.08 m/s
kinematic viscosity (375 K, 1537.5 kPa): 1.53e-06 ± 1.8e-08 m2/s
speed of sound (375 K, 1537.5 kPa): 397.37 ± 0.08 m/s
kinematic viscosity (375 K, 1815.6 kPa): 1.3e-06 ± 1.5e-08 m2/s
speed of sound (375 K, 1815.6 kPa): 398.04 ± 0.08 m/s
kinematic viscosity (375 K, 2026.2 kPa): 1.16e-06 ± 1.4e-08 m2/s
speed of sound (375 K, 2026.2 kPa): 398.56 ± 0.08 m/s
kinematic viscosity (375 K, 2250.6 kPa): 1.05e-06 ± 1.3e-08 m2/s
speed of sound (375 K, 2250.6 kPa): 399.12 ± 0.081 m/s
kinematic viscosity (375 K, 2518.2 kPa): 9.4e-07 ± 1.1e-08 m2/s
speed of sound (375 K, 2518.2 kPa): 399.8 ± 0.081 m/s
